Experimental data published in patent US10647680B2, “Urea compound, preparation method therefor and medical use thereof” (Ancureall Pharmaceutical (Shanghai) Co., Ltd., priority 2016, dated 2020).

Experiments:
[1] = tested on: KG-1 (expressing FGFR1OP2-FGFR1 fusion protein); assay: In vitro growth inhibition (GI50), KG-1; type: cell-based; conditions: Homo sapiens; Cell lines of leukemia; read-out: GI 50 KG-1 FGFR1OP 2-FGFR1
[2] = tested on: NCI-H1781 (HER2/ErbB2 Ins G776V,C mutant type); assay: In vitro growth inhibition (GI50), NCI-H1781; type: cell-based; conditions: Homo sapiens
From the text: Tumor cell line is an effective cell model for studying the inhibition of tumor cell growth or proliferation in vitro. In the present invention, a representative tumor cell line was selected to determine the cell growth inhibition activity of the present compound. All cell lines used were from ATCC, DSMZ, and the Cell Bank of the Chinese Academy of Sciences. Cell culture conditions and methods were in accordance with the requirements of each cell line. Cells were subcultured in vitro for no more than 3 passages each time, and as required, single-clone purification and identification of cell lines could be carried out.
The cell culture media used were RPMI1640 (Gibco), MEM (Gibco), McCOY'S5A (Gibco), and IMDM (Gibco). The complete medium was prepared by supplement with 5˜20% fetal calf serum (Gibco), 1% double-antibiotics (10000 units/mL penicillin and 10000 units/mL), 2 mM glutamine or 1 mM sodium pyruvate, respectively.
Human gastric cancer cell line NCI-N87 (HER2/ErbB2 amp, ATCC), human breast cancer cell line HCC1954 (HER2/ErbB2 amp, ATCC) and ZR-75-30 (HER2/ErbB2 amp, ATCC), human adenocarcinoma cell line AU565 (HER2/ErbB2 amp, ATCC), human lung squamous cell carcinoma cell line NCI-H2170 (HER2/ErbB2 amp, ATCC), human bronchioalveolar adenocarcinoma cell line NCI-H1781 (HER2/ErbB2 Ins G776V,C mutant type, ATCC) were cultured with a 1×RPMI1640 complete medium (10% FBS), respectively. Human lung adenocarcinoma cell line Calu-3 (HER2/ErbB2 amp, ATCC) was cultured with 1×MEM, 10% FBS, 1% double antibody, 1% NEAA (Gibco), 2 mM glutamine and 1 mM sodium pyruvate. The human breast cancer cell line SK-BR-3 (HER2/ErbB2 amp, ATCC) was cultured with a McCOY'S5A complete medium (10% FBS).
Adherent cells were digested with 0.25% pancreatin-EDTA (Gibco). The suspension cells were collected by centrifugation. The supernatant was discarded and the cell pellet was resuspended and counted. Different cell concentrations (5˜10×10^4 cells/mL) were prepared according to the growth cycle of each cell line and then seeded on a 96-well plate (Corning), 100 μL/well. The cells were incubated overnight at 37° C., 5% CO2. The compounds were added to the cells on the second day with 2 wells in parallel. The final concentration of organic solvent shall not exceed 1%. The cells were continually incubated for 3 to 5 days, and then subjected to MTT assay.
The compound of the present invention and the control compound were dissolved in DMSO (Sigma) respectively, with the purity of more than 98%. The compound was stored in a concentration of 10 mM at −20° C. and diluted to 2- or 10-fold series prior to use.
Dojindo CCK8 reagent kit was used as MTT assay. THERMO […] FC meter was used as microplate reader.
For adherent cells, culture medium was removed and immediately replaced with the fresh prepared medium which contains 10% CCK8 reagent (100 μL/well). For the suspension cells, CCK8 was directly added to 10% of the final concentration. The cells were continually incubated for 1˜4 h. When a dark yellow color could be observed in the solvent control wells, the absorbance value at OD450 nm was measured and the cell growth rate was calculated according to the following formula: Cell Growth Rate (%)=100*(T−T0)/(C−T0) T=optical density of drug treatment cell well—optical density of blank control well; T0=optical density of cell well before drug treatment—optical density of blank control well; C=optical density of cell well of solvent control group—optical density of blank control well. The concentration value of 50% inhibition of cell growth (GI50) was calculated according to the drug concentration and cell growth rate curve. The experiment was independently repeated 1˜3 times, and subject to biological statistical analysis. 4. Experimental Results
Tumor cell growth inhibition test was performed by selecting representative compounds (compounds 4, 11, 12, 16, 27, 68, 71, 77, 79, 89 and 116 of the present invention). […]

Compound | GI50 [2] | GI50 [1]
COCCOc1ccc2c(c1)ncn2-c1ccc(NC(=O)Nc2cc(C(C)(C)C)n[nH]2)cc1 [Compound 77, 1-(5-tert-butyl-2H-pyrazol-3-yl)-3-{4-[5-(2-methoxyl-ethoxyl)-benzimidazol-1-yl]-phenyl}-urea] | > 2500 nM | > 1000 nM
CC(C)(C)c1cc(NC(=O)Nc2ccc(-n3cnc4cc(O)ccc43)cc2)no1 [Compound 4, 1-(5-tert-butyl-isoxazol-3-yl)-3-[4-(5-hydroxy-benzimidazol-1-yl)-phenyl]-urea] | > 2500 nM | 100 to 1000 nM
CC(C)(C)c1cc(NC(=O)Nc2ccc(-n3cnc4cc(OCCN5CCOCC5)ccc43)cc2)no1 [Compound 16, 1-(5-tert-butyl-isoxazol-3-yl)-3-{4-[5-(2-morpholin-4-yl-ethoxyl)-benzimidazol-1-yl]-phenyl}-urea] | > 2500 nM | > 1000 nM
CC(C)(C)c1cc(NC(=O)Nc2ccc(-n3cnc4cc(OCCO)ccc43)cc2)no1 [Compound 11, 1-(5-tert-butyl-isoxazol-3-yl)-3-{4-[5-(2-hydroxy-ethoxyl)-benzimidazol-1-yl]-phenyl]-urea] | > 2500 nM | > 1000 nM
CC(C)(C)c1cc(NC(=O)Nc2ccc(-n3cnc4ccc(OCCN5CCOCC5)cc43)cc2)no1 [Compound 27, 1-(5-tert-butyl-isoxazol-3-yl)-3-{4-[6-(2morpholin-4-yl-ethoxyl)-benzimidazol-1-yl]-phenyl}-urea] | > 2500 nM | 100 to 1000 nM

Continued, in another order:

GI50 [2] | Compound | GI50 [1]
> 2500 nM | CC(C)(C)c1cc(NC(=O)Nc2ccc(-n3cnc4cc(OCCO)ccc43)cc2)[nH]n1 [Compound 79, 1-(5-tert-butyl-2H-pyrazol-3-yl)-3-{4-[5-(2-hydroxy-ethoxyl)-benzimidazol-1-yl]-phenyl]urea] | > 1000 nM
> 2500 nM | CC(C)(C)c1cc(NC(=O)Nc2ccc(-n3cnc4cc(OCCN5CCOCC5)ccc43)cc2)[nH]n1 [Compound 89, 1-(5-tert-butyl-2H-pyrazol-3-yl)-3-{4-[5-(2-morpholin-4-yl-ethoxyl)-benzimidazol-1-yl]-phenyl}-urea] | > 1000 nM
> 2500 nM | CC(C)(C)c1cc(NC(=O)Nc2ccc(-n3cnc4ccccc43)cc2)[nH]n1 [Compound 68, 1-(4-benzimidazol-1-yl-phenyl)-3-(5-tert-butyl-2H-pyrazol-3-yl)-urea] | > 1000 nM
> 2500 nM | COc1ccc2c(c1)ncn2-c1ccc(NC(=O)Nc2cc(C(C)(C)C)n[nH]2)cc1 [Compound 71, 1-(5-tert-butyl-2H-pyrazol-3-yl)-3-[4-(5-methoxyl-benzimidazol-1-yl)-phenyl]-urea] | > 1000 nM
> 2500 nM | CC(C)(C)c1cc(N)n(C(=O)Nc2ccc(-n3cnc4ccccc43)cc2)n1 [Compound 116, 5-amino-3-tert-butyl-pyrazol-1-carboxylic acid (4-benzimidazol-1-yl-phenyl)-amide] | > 1000 nM
